# How the values were obtained:
# Conditions in all cases: 72 h
# Caco-2 [1] = experiment: relative viability EC50 (midpoint between 100% and the lowest measured viability); higher = less toxic
# Vero E6 [2] = experiment: as above
# U2OS [3] = experiment: as above
# HepG2 [4] = experiment: as above
# Calu-3 [5] = experiment: as above
# Caco-2 [6] = experiment: drug sensitivity score (DSS) for viability; higher = more toxic; extreme values may be limits of the assay
# Vero E6 [7] = experiment: as above
# U2OS [8] = experiment: as above
# HepG2 [9] = experiment: as above
# Calu-3 [10] = experiment: as above
# Caco-2 [11] = experiment: cell viability relative to DMSO; higher = less toxic
# Vero E6 [12] = experiment: as above
# U2OS [13] = experiment: as above
# HepG2 [14] = experiment: as above
# Calu-3 [15] = experiment: as above
Structure (SMILES),relative viability EC50 (Caco-2 [1]) [µM],relative viability EC50 (Vero E6 [2]) [µM],relative viability EC50 (U2OS [3]) [µM],relative viability EC50 (HepG2 [4]) [µM],relative viability EC50 (Calu-3 [5]) [µM],drug sensitivity score (Caco-2 [6]),drug sensitivity score (Vero E6 [7]),drug sensitivity score (U2OS [8]),drug sensitivity score (HepG2 [9]),drug sensitivity score (Calu-3 [10]),cell viability (Caco-2 [11]; 1 nM) [%],cell viability (Caco-2 [11]; 10 nM) [%],cell viability (Caco-2 [11]; 100 nM) [%],cell viability (Caco-2 [11]; 1000 nM) [%],cell viability (Caco-2 [11]; 10000 nM) [%],cell viability (Vero E6 [12]; 1 nM) [%],cell viability (Vero E6 [12]; 10 nM) [%],cell viability (Vero E6 [12]; 100 nM) [%],cell viability (Vero E6 [12]; 1000 nM) [%],cell viability (Vero E6 [12]; 10000 nM) [%],cell viability (U2OS [13]; 1 nM) [%],cell viability (U2OS [13]; 10 nM) [%],cell viability (U2OS [13]; 100 nM) [%],cell viability (U2OS [13]; 1000 nM) [%],cell viability (U2OS [13]; 10000 nM) [%],cell viability (HepG2 [14]; 1 nM) [%],cell viability (HepG2 [14]; 10 nM) [%],cell viability (HepG2 [14]; 100 nM) [%],cell viability (HepG2 [14]; 1000 nM) [%],cell viability (HepG2 [14]; 10000 nM) [%],cell viability (Calu-3 [15]; 1 nM) [%],cell viability (Calu-3 [15]; 10 nM) [%],cell viability (Calu-3 [15]; 100 nM) [%],cell viability (Calu-3 [15]; 1000 nM) [%],cell viability (Calu-3 [15]; 10000 nM) [%]
CCC[C@@H]1CC(=O)N([C@@H](CC)C(N)=O)C1 [Brivaracetam],> 10,> 10,> 10,> 10,> 10,0,0,0,0,0,89.1,94.5,93.8,102,98.8,89.6,96.2,88.3,97.5,107,102,98,102,96.2,99.6,101,96.2,101,97.9,114,100,103,92.7,100,97.2
O=C(O)c1ccc(/C=C2\SC(=S)N(c3cccc(C(F)(F)F)c3)C2=O)cc1 [CFTRinh-172],> 10,> 10,> 10,> 10,> 10,0,0,0,0,0,104,100,86.7,99.4,99.9,96.3,96.3,96.4,93.9,107,95.2,101,94.2,104,99.4,111,104,96.2,94.7,106,102,99.9,97.8,106,116
O=C(O)C1=CCCN(CCOC(c2ccc(C(F)(F)F)cc2)c2ccc(C(F)(F)F)cc2)C1 [CI-966],> 10,> 10,> 10,> 10,> 10,0,0,0,0,0,101,101,105,100,90.4,98.2,99.4,101,97.8,99.4,101,107,106,98.7,98,98.7,99.3,104,95.5,109,97.6,101,102,98.5,96.4
Cc1cc(NC(=O)C(c2ccccc2)N2CCCc3ccccc32)no1 (stereo not given) [CIM-0216],> 10,> 10,> 10,> 10,> 10,0,0,0,0,0,97.1,101,98.2,97.4,114,104,99.2,96.3,101,101,98.7,104,97.4,101,97,104,103,103,90.1,98.3,103,98.5,87.7,113,111
COc1cccc(/C=N/N=C/c2cccc(OC)c2)c1 [DMeOB],> 10,> 10,> 10,> 10,> 10,0,0,0,0,0,96.4,106,96.9,104,103,109,99.8,103,99.2,103,101,102,97.5,107,99.3,110,93.3,103,98.4,94.9,101,114,99.6,111,105
CC(C)(C)c1cc(C(=O)/C(C#N)=N/Nc2cccc(Cl)c2)no1 [ESI-09],2.75,> 10,> 10,3.4,> 10,3.9,0,0.2,3.5,0,99.8,96.1,104,96.6,37,90,94.2,91,99.3,83.3,98.1,96.1,98.4,96.1,87.6,109,102,102,103,31.2,103,93.7,91.9,102,95.9
CN[C@@H](C)C(=O)N[C@H](C(=O)N1CCC[C@H]1C(=O)Nc1snnc1-c1ccccc1)C1CCCCC1 [GDC-0152],> 10,> 10,> 10,> 10,> 10,0,0,0,0,1.1,98.4,104,98.9,102,92.2,97,98.9,102,103,106,98.1,109,95.7,100,94.3,105,105,99.6,97.4,96,104,106,97.4,87.9,84.9
Cc1cc(OCc2nc(-c3ccccc3Cl)cs2)ccc1OCC(=O)O [GPR120-modulator-1],> 10,> 10,> 10,> 10,> 10,0,0,0,0,0,102,97.5,103,98.5,92.8,101,102,102,97.9,97.1,92.3,96.8,92.2,102,94.3,104,93.4,101,101,92.8,96.4,99.8,99.6,110,86.9
CC(C)c1onc(-c2c(Cl)cccc2Cl)c1COc1ccc(/C=C/c2cccc(C(=O)O)c2)c(Cl)c1 [GW-4064],> 10,> 10,> 10,> 10,> 10,1.4,0,0,0,0,94,99.4,102,91,81.4,95.5,99.8,94,93.8,95.7,98.2,106,96.4,93.3,97.7,105,103,92.4,99.2,93.8,93.9,107,103,102,96.5
CCC(=O)NC[C@H](Cc1ccc(OCCc2nc(-c3ccccc3)oc2C)cc1)N/C(C)=C\C(=O)c1ccc(C(F)(F)F)cc1 [GW-6471],> 10,> 10,> 10,> 10,> 10,0,0,0,0,0,94.5,102,106,97.8,93.6,98.6,97.6,96.1,89.3,94.8,96.6,104,101,100,95.4,97.3,99.5,93.8,101,109,101,94.7,103,97.4,102
C[N+](C)(C)CCCCCNCC12CC3CC(CC(C3)C1)C2 [IEM1460],> 10,> 10,> 10,> 10,> 10,0.1,0,0,0,0,96.2,103,95,99.6,88.1,105,91,105,92.5,103,94.1,102,99,103,95.7,101,85.2,104,93.9,106,91.1,104,96.1,98.2,98.4
COC(=O)c1csc(C(=O)c2c[nH]c3ccccc23)n1 [ITE],> 10,> 10,> 10,> 10,> 10,0,0,0,2,0,96.1,105,101,108,94.2,95,96.1,92.1,98.6,97.4,101,104,97.1,102,96.3,104,112,92.8,84.8,85.5,105,101,103,105,97.5
CCCCCOc1c(OC)ccc2cc(C(=O)NCc3ccc4c(c3)OCO4)c(=O)[nH]c12 [JTE-907],> 10,> 10,> 10,> 10,> 10,0.8,0,0,0,0,90.9,91.1,99.9,101,75.7,90.8,99.8,94.5,94.3,110,100,99.7,103,99.5,97.4,95,97.4,100,115,103,102,93.9,97.3,105,90.8
COc1cc2nccc(Oc3ccc(NC(=O)Nc4ccc(F)cc4F)c(F)c3)c2cc1OC [KI-8751],> 10,> 10,> 10,> 10,> 10,0,0,0,0,0,95.8,91.8,102,92.4,99.6,101,107,98.9,107,107,98.8,97.6,99.2,99.2,102,97.5,116,106,101,95.5,94.1,97.6,86.8,95.7,93.1
